Measured values from patent US7989602B2, “Synthetic molecules having immune activity” (The Malaghan Institute of Medical Research, priority 2003, dated 2011).
Like-named read-outs stand apart in the source and are kept apart here.

How the values were obtained:
airway eosinophilia = test: OVA-induced airway eosinophilia mouse model; type: in vivo, C57B1/6J mice
[1] = tested on: C57BL-6 mouse spleen cells; test: Cytokine production in vitro by mouse spleen cells (ELISA); type: cell-based
[2] = 5 μg/ml, dissolved in Tween/PBS, PIM-2 control also in 0.02% Tween/PBS, 24 hours
[3] = 5 μg/ml in PBS, 24 hours, 10^6 cells per well, ELISA

Molecule | induced production of IFNγ ([1]; in words, summary of Table 4) | induced production of IL-12 ([1]; in words, summary of Table 4) | IFNγ compared with PIM-2 control [1, 3] | IL-12 compared with PIM-2 control [1, 3] | further results
CCCCCCCCCCCCCCCCCC(=O)OCC(CO[C@H]1O[C@H](CO)[C@@H](O)[C@H](O)[C@@H]1O)OC(=O)CCCCCCCCCCCCCCCCC (mixture of isomers) [Compound 17, 1,2-di-O-stearoyl-3-O-α-D-mannopyranosylglycerol] | – | – | – | – | biological activity (airway eosinophilia; results not shown, stated in Example 2): not biologically active
CCCCCCCCCCCCCCCCCC(=O)OC[C@H](COP(=O)(O)OCCO[C@H]1O[C@H](CO)[C@@H](O)[C@H](O)[C@@H]1O)OC(=O)CCCCCCCCCCCCCCCCC [Compound 7, Triethylammonium 1-O-(1,2-di-O-stearoyl-sn-glycero-3-phosphoryl)-2-O-(α-D-mannopyranosyl)-1,2-ethanediol] | notable levels | notable levels | – | – | IFNγ compared with PIM-2 control [1, 2]: 1.26; IL-12 compared with PIM-2 control [1, 2]: 1.03
CCCCCCCCCCCCCCCCCC(=O)OCC(COP(=O)(O)OC(COC1OC(CO)C(O)C(O)C1O)COC1OC(CO)C(O)C(O)C1O)OC(=O)CCCCCCCCCCCCCCCCC [Compound 15, Triethylammonium 2-O-(1,2-O-distearoyl-sn-glycero-3-phoshoryl)-1,3-bis-O-(α-D-mannopyranosyl)glycerol] | levels comparable to PIM-22,6 | – | 0.98 | – | Mean Eosinophil Count (×10^6), least square means by test molecule type (airway eosinophilia; BAL 4 days after intranasal OVA challenge, intranasal treatment in 50 μl PBS, mean over dose rates 0, 0.02, 0.2, 2.0): 0.144 ×10^6
CCCCCCCCCCCCCCCCCC(=O)OC[C@H](COP(=O)([O-])OCCO[C@H]1O[C@H](CO[C@H]2O[C@H](CO)[C@@H](O)[C@H](O)[C@@H]2O)[C@@H](O)[C@H](O)[C@@H]1O)OC(=O)CCCCCCCCCCCCCCCCC.[Na+] [Compound 28, Sodium 1-O-(1,2-di-O-stearoyl-sn-glycero-3-phosphoryl)-2-O-[6-O-(α-D-mannopyranosyl)-α-D-mannopyranosyl]-1,2-ethanediol] | – | – | – | – | IFNγ compared with PIM-2 control [1]: 0.62; IL-10 compared with PIM-2 control [1]: 0.36; IL-12 compared with PIM-2 control [1]: 1.15; induced production of IFNγ [1]: notable levels; induced production of IL-12 [1]: notable levels
CCCCCCCCCCCCCCCCCC(=O)OC[C@H](COP(=O)([O-])OCCCOC1OC(CO)C(O)C(O)C1O)OC(=O)CCCCCCCCCCCCCCCCC.[Na+] (stereo partly shown) [Compound 31] | notable levels | notable levels | 0.75 | 1.80 | –
CCCCCCCCCCCCCCCCCC(=O)OC[C@H](COP(=O)([O-])O[C@@H]1CCCC[C@H]1OC1OC(CO)C(O)C(O)C1O)OC(=O)CCCCCCCCCCCCCCCCC.[Na+] (stereo partly drawn) [Compound 36, 1-O-(Sodium 1,2-di-O-stearoyl-sn-glycero-3-phosphoryl)-2-O-(-α-D-mannopyranosyl)-cyclohexane-1,2-diol] | – | levels greater than PIM-22,6 | 0.05 | 1.59 | IL-4 compared with PIM-2 control [1, 3]: 4.29; IL-10 compared with PIM-2 control [1, 3]: 0.60; induced production of IL-4 ([1]; in words, summary of Table 4): levels greater than PIM-22,6
CCCCCCCCCCCCCCCCCC(=O)OC[C@H](COP(=O)([O-])OC(COC1OC(CO)C(O)C(O)C1O)COC1OC(CO)C(O)C(O)C1O)OC(=O)CCCCCCCCCCCCCCCCC.[Na+] (stereo partly drawn) [Compound 44, Sodium(1,2-di-O-stearoyl-sn-glycero-3-phoshoryl)-2-[1,3-bis-O-(α-D-galactopyranoside)]glycerol] | – | a small amount | – | 0.14 | induced production of IL-12 ([1]; in words, summary of Table 4, listed as compound 44): only a low level
CCCCCCCCCCCCCCCCCCOP(=O)([O-])OC(COC1OC(CO)C(O)C(O)C1O)COC1OC(CO)C(O)C(O)C1O.[Na+] [Compound 47, Sodium 2-O-(Octadecylphosphoryl)-1,3-bis-O-(α-D-mannopyranosyl)glycerol] | – | induced production | 0.03 | 0.56 | IL-4 compared with PIM-2 control [1, 3]: 1.94; IL-10 compared with PIM-2 control [1, 3]: 0.53; induced production of IL-4 ([1]; in words, summary of Table 4): greater levels; induced production of IL-10 ([1]; in words, summary of Table 4): induced production
L-α-Phosphatidylinositol [reference compound] | – | – | 0.39 | – | –
